Reference: US20110262395A1, “SENSORY RECEPTORS FOR CHRONIC FATIGUE AND PAIN AND USES THEREOF” (UNIVERSITY OF UTAH RESEARCH FOUNDATION, priority 2008, published 2011)
“Also recorded” adds a separate entry of the source.

How the values were obtained:
ASIC3 = molecular target: T1, ASIC3 (Homo sapiens, UniProt Q9UHC3); conditions: cited from earlier work
T1 sequence (Q9UHC3 1-531): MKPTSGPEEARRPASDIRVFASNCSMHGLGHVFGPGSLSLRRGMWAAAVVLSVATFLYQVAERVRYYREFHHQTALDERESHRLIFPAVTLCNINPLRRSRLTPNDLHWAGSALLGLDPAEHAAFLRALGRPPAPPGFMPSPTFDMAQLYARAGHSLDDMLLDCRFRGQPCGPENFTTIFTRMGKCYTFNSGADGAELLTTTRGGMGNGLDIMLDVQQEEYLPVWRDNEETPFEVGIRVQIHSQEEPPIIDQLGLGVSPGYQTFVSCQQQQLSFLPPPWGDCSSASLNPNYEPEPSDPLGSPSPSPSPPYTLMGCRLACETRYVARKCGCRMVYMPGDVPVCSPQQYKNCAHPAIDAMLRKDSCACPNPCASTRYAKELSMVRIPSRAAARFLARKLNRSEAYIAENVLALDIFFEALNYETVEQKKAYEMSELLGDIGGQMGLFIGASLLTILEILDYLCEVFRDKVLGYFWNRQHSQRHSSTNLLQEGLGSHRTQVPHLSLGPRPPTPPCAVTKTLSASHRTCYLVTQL

DRG neurons [1] = test: Calcium imaging of cultured DRG neurons: percent of neurons responding to applied metabolites or capsaicin; format: cell-based, mouse; conditions: for ability to enhance metabolite responses: ATP: 1 μM
Text: (§1) Harvesting/culturing cells/loading cells: Thirty-nine three week old (4 wells of DRG neurons plated from each mouse), C57Bl/6 mice were anesthetized with isoflurane, and euthanized by cervical dislocation. Dorsal root ganglia (DRG) from lumbar regions were removed into HBSS, treated with trypsin, washed with MEM (Invitrogen 51200-038) containing 10% FBS (Hyclone), 2.4% glucose, 1% glutamax (Invitrogen 35050-061) and 1% penicillin/streptomycin (Atlanta Biological B2110). DRG were triturated, pre-plated and incubated at 37° C. for one hour to reduce non-neuronal cells. Neurons were gently swirled and centrifuged (110×g, 5 min). Cells were removed, re-suspended and 30 μL plated onto the 4 center wells of 24-well plates coated with poly-L-lysine and laminin. A 0.5 mm thick silicone ring with a 4 mm diameter opening sealed to the surface of each well reduced the plating area in each well. Following 1 hour, wells were filled with 37° C. culture medium with 10 ng/mL GDNF (Glial Derived Neurotrophic Factor) (Preprotech 450-10). Sixteen to 23 hours after plating, cultures were loaded with Fura-2 AM (Molecular Probes F-1221) fluorescent dye for 40-60 minutes, then washed with pH 7.4 oxygenated observation medium containing no additional ATP (145 mM NaCl, 5 mM KCl, 2 mM CaCl2, 1 mM MgCl2, 1 mM Citrate, 10 mM glucose, 10 mM MES, 10 mM HEPES). The final well volume was 500 μL.
Choice and concentrations of metabolites: Because the afferent receptors in muscle have been reported to be on the outside of blood vessels supplying muscle, values obtained for muscle interstitium from experiments using cat, rat, and human for muscle contraction evoked by mild to moderate to extreme exercise were used.
Protons (pH): Values between 7.6 and 6.2 were used spanning the range found in skeletal and cardiac muscle in mammals from above resting values to those found with injury and disease.
Lactate: 1-50 mM lactate was used, a range of values that spans from rest to ischemia in muscles of humans and rats and mice.
ATP: ATP concentrations in muscle interstitium increase from 300 nM at rest to 5 μM with ischemic muscle contraction (Hellsten et al., 1998; Li et al., 2003; Li et al., 2005). These levels were used in the experiments described below. […] To allow for physiological levels of desensitization of possible P2X receptors, freshly prepared ATP at 300 nM was used for at least 30 seconds before any further increases in ATP combined with other metabolites, to establish resting conditions in DRG neurons in these experiments. […] Also used were pH 6.0 and 4.0 without additional increases in metabolites to confirm that the imaging experiments could replicate recent reports using patch-clamp techniques (Leffler et al., 2006).
(§2) Combinations of metabolites applied to mimic naturally occurring conditions: When applied in an escalating series to mimic increases in metabolites that occur with muscle exercise and ischemic muscle exercise, the metabolite values shown in Table 1 were used. The values associated with pH 7.6 are at or below those normally found at rest in the mouse. The values at 7.4 approximate those found at rest. Generally, the low metabolite values associated with pH higher than 7.0 are likely to be non-noxious, while higher metabolite values at pH 7.0 and lower may be associated with pain. These values should bracket the physiological range of metabolites found in skeletal muscle with the last two values (those associated with 6.4 and 6.2) being higher than the physiological range (Bangsbo et al., 1993; Bangsbo et al., 2001; Li et al., 2003; Li et al., 2005; Reeh and Kress, 2001; Steinhagen et al., 1976).
Di-I labeling: In some experiments, neurons were identified as innervating muscle by prior muscle labeling with Di-I. Twelve 7-9 day old mice were anesthetized by cooling. […]

DRG neurons [2] = test: Calcium imaging of cultured DRG neurons: antagonist effects on responses to increasing metabolites (protons, lactate, ATP); format: cell-based, mouse
Text: as §1, §2
JYL-1422, LJO-328, A-317567, and a selected stereo isomer of A-317567 were each dissolved in 5% DMSO/95% water and a few μL of 1M HCl to a concentration of 10 mM, then quick frozen and stored at −20° C. Aliquots of antagonists were thawed and diluted to the appropriate concentrations just prior to use in the experiments. The strong buffers maintained the pH of these antagonists when mixed with metabolites.
Imaging procedure: All experiments were performed at room temperature (20-25° C.) to allow correspondence with most previous experiments using calcium imaging and patch clamp of DRG neurons. Cells were imaged using the Meta Imaging Series Metafluor program (Universal Imaging Corp). All cells identifiable as neurons based on their round shape, clear, single nucleus, were selected from a phase image of the field. At the end of each experiment, 200 nM capsaicin was applied, followed by a wash, and then applied 50 mM KCl. Capsaicin activation indicated the presence of TRPV1 receptors on neurons, and KCl ensured that recorded objects were active neurons, and established the maximal calcium response in each neuron. For some neurons the administration of capsaicin abolished the potential for responding to KCl, thus either a response to capsaicin or to KCl indicated viability of neurons, and only viable neurons were included in analyses.
For each field an average of 151+10 cells were tracked real-time. […] FIGS. 1 and 2 show traces from these graphs. […]

APETx2
inhibition of ASIC3 and ASIC3 heteromers (ASIC3): can selectively inhibit ASIC3 and ASIC3 heteromers

Nc1ncnc2c1ncn2[C@@H]1O[C@H](COP(=O)(O)OP(=O)(O)OP(=O)(O)O)[C@@H](O)[C@H]1O [ATP]
percent of DRG neurons responding (DRG neurons [1]; ATP with lactate): 4.7%
ability to enhance metabolite responses (DRG neurons [1]): capable of enhancing metabolite responses when freshly prepared
percent of DRG neurons activated (DRG neurons [1]; graded series, going from 2 μM to 5 μM): approximately 16%
percent of DRG neurons activated (DRG neurons [1]; gradually increased from resting amounts, only at concentrations higher than 2 μM): < 11%
percent of DRG neurons activated (DRG neurons [1]; increasing graded series from 300 nM, when 2 μM was reached): less than 10%
percent of DRG neurons responding (DRG neurons [1]; pH 7.0-ATP 1 μM (increasing protons with addition of ATP)): 11.2%

CC(O)C(=O)O (centres unmarked) [lactate]
percent of DRG neurons activated (DRG neurons [1]; 50 mM, pH 6.6): 9.5%
percent of DRG neurons activated (DRG neurons [1]; 5-15 mM combined with protons at pH 7.3-6.8): less than 4%
DRG neuron responses (DRG neurons [1]; alone, 1-50 mM, pH 7.4): caused no increases in DRG neuron responses; also recorded: activated very few mouse DRG neurons
total percent of DRG neurons activated (DRG neurons [1]; lactate plus protons, all levels of metabolites included): more than 10%

Nc1ncnc2c1ncn2[C@@H]1O[C@H](COP(=O)(O)OP(=O)(O)O)[C@@H](O)[C@H]1O [ADP]
ability to enhance metabolite responses (DRG neurons [1]): not capable of enhancing metabolite responses

Cc1nc(N=Nc2ccc(S(=O)(=O)O)cc2S(=O)(=O)O)c(COP(=O)(O)O)c(C=O)c1O [PPADS]
effect on responses to increasing metabolites (DRG neurons [2]; antagonist 300 μM): eliminated most responses to increasing metabolites
effect on responses to increasing metabolites (DRG neurons [2]; antagonist 200-300 μM, doses effective at all P2X receptors): eliminated nearly all responses to increasing metabolites
